Reference: patent publication US11466019B2, “Triazolo[4,5-d] pyramidine derivatives and their use as purine receptor antagonists” (Vernalis (R&D) Limited, priority 2008, dated 2022)
pKi: −log10 of the molar value. Read-outs that look alike come from different tables or passages of the source.

What was measured:
[1] = system: haloperidol-induced deficits in locomotor activity in mice; test: Haloperidol-induced hypolocomotion model (HaloLMA); type: in vivo; details: female TO mice, intraperitoneal, haloperidol 0.2 mg/kg
Excerpt: Evaluation of Potential Anti-Parkinsonian Activity In Vivo: Haloperidol-Induced Hypolocomotion Model
This approach is also considered a valid method for screening drugs with potential antiparkinsonian effects. Thus, the ability of novel adenosine antagonists to block haloperidol-induced deficits in locomotor activity in mice can be used to assess both in vivo and potential antiparkinsonian efficacy.
Female TO mice (25-30 g) are used for all experiments. Animals are housed in groups of 8 (cage size-40 cm (width) by 40 cm (length) by 20 cm (height)) under 12 hour light/dark cycle (lights on 08:00), in a temperature (20±2° C.) and humidity (55±15%) controlled environment. Animals have free access to food and water, and are allowed at least 7 days to acclimatize after delivery before experimental use.
Liquid injectable haloperidol (e.g., 1 mL Serenance ampoules from Baker Norton, Harlow, Essex, each containing haloperidol BP 5 mg) are diluted to a final concentration of 0.02 mg/mL using saline. Test compounds are typically prepared as aqueous suspensions in 8% Tween. All compounds are administered intraperitoneally in a volume of 10 mL/kg.
1.5 hours before testing, mice are administered 0.2 mg/kg haloperidol, a dose that reduces baseline locomotor activity by at least 50%. Test substances are typically administered 5-60 minutes prior to testing. The animals are then placed individually into clean, clear polycarbonate cages (20 cm (width) by 40 cm (length) by 20 cm (height), with a flat perforated, Perspex lid). Horizontal locomotor activity is determined by placing the cages within a frame containing a 3 by 6 array of photocells linked to a computer, which tabulates beam breaks. Mice are left undisturbed to explore for 1 hour, and the number of beams breaks made during this period serves as a record of locomotor activity which is compared with data for control animals for statistically significant differences.
A number of the exemplified compounds of the present invention were tested in this assay and the results obtained are shown in Table 3, below.

[2] = target: T1, human adenosine A1 receptors (Homo sapiens, UniProt P30542); test: Adenosine receptor binding: binding affinities at hA1 receptors ([3H]DPCPX displacement); details: for pKi: read-out: Binding Affinity hA1-Ki; for Binding Selectivity A1/A2a: ratio of Ki values
T1 construct: expressed in transfected cells; host or cells: CHO-K1
T1 sequence (P30542 1-326): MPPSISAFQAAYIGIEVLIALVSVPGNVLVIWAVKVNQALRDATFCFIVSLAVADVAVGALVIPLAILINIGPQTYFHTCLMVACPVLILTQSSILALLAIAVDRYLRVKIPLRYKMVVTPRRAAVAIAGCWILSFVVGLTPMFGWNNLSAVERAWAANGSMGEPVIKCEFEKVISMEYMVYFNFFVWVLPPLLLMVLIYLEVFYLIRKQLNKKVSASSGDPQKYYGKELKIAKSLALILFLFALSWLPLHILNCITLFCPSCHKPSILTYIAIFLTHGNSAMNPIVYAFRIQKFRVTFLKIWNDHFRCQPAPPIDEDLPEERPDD
Method: Adenosine Receptor Binding: Binding Affinities at hA1 Receptors
The resultant homogenate was kept for immediate use in the binding.
(§1) Binding assays were performed in a total volume of 250 μL, containing [^3H]-DPCPX (3.0 nM), membranes and additional drugs. Total binding was determined using drug dilution buffer (50 mM Tris-HCl pH:7.5, 10 mM MgCl2, 5% DMSO). Non-specific binding was determined using 300 μM N6-cyclohexyladenosine (CHA). […] Filters were left to dry overnight, and Microscint-0 scintillation fluid was then added to the filters. The filters were then left for at least 2 hours before the radioactivity was assessed using a Canberra Packard TopCount microplate scintillation counter.
To determine the free ligand concentration, three vials were counted with 25 μL of [^3H]DPCPX containing 4 mL of Ultima-Gold MV scintillant on a Beckman LS6500 multi-purpose scintillation counter.
(§2) Data was analysed using a 4 parameter logistical equation and non-linear regression which yields affinity constants (pIC50), and slope parameters:
(§3) [formula] where E is the quantity of binding and [A] is the competitor concentration. The Ki is then determined using the Cheng-Prusoff equation: […]

[3] = target: T2, human adenosine A2A receptors (Homo sapiens, UniProt P29274); test: Adenosine receptor binding: binding affinities at hA2A receptors ([3H]CGS-21680 displacement); details: read-out: Binding Affinity hA2A-Ki
T2 construct: host or cells: HEK-293
T2 sequence (P29274 whole entry): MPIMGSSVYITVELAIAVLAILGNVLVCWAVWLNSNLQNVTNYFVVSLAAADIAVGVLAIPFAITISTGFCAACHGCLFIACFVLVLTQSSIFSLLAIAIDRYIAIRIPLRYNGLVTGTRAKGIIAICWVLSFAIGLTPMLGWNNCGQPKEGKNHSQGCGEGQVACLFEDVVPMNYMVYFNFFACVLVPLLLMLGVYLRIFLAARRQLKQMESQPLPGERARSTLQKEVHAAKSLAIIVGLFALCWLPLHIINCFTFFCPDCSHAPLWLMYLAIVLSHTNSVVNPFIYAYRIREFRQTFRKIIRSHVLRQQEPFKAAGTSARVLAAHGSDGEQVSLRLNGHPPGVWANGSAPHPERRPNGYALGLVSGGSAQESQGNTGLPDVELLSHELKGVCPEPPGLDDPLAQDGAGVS
Method: Adenosine Receptor Binding: Binding Affinities at hA2A Receptors
as §1, with “The resultant homogenate was kept for immediate use in the binding assay. Binding” for “Binding”, “[^3H]-CGS21680 (20.0” for “[^3H]-DPCPX (3.0”, “pH 7.5,” for “pH:7.5,”, “CHA.” for “N6-cyclohexyladenosine (CHA).”
To determine the free ligand concentration, three vials were counted with 25 μL of [^3H]CGS21680 containing 4 mL of Ultima-Gold MV scintillant on a Beckman LS6500 multi-purpose scintillation counter.
as §2, §3

hA2B receptors = target: T3, hA2B receptors (Homo sapiens, UniProt P29275); test: Adenosine receptor binding: binding affinities at hA2B receptors ([3H]-ZM241385 displacement); details: for pKi: read-out: Binding Affinity hA2B-Ki; for Binding Selectivity A2b/A2a: ratio of Ki values
T3 construct: host or cells: HEK-293
T3 sequence (P29275 1-332): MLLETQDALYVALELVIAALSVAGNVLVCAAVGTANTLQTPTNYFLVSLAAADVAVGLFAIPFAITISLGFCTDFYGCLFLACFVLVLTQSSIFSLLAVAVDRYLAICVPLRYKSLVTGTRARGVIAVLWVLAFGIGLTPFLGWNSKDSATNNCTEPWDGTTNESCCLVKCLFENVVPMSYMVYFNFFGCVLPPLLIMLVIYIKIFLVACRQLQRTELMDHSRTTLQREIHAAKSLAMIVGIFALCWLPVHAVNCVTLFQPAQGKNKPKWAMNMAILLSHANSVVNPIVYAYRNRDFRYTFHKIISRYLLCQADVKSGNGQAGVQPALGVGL

[4] = target: T4, human adenosine A3 receptors (Homo sapiens, UniProt P0DMS8); test: Adenosine receptor binding: binding affinities at hA3 receptors ([125I]-AB MECA displacement); details: for Binding Selectivity A3/A2a: ratio of Ki values; for pKi: read-out: Binding Affinity hA3-Ki
T4 construct: expressed in transfected cells; host or cells: CHO-K1
T4 sequence (P0DMS8 1-318): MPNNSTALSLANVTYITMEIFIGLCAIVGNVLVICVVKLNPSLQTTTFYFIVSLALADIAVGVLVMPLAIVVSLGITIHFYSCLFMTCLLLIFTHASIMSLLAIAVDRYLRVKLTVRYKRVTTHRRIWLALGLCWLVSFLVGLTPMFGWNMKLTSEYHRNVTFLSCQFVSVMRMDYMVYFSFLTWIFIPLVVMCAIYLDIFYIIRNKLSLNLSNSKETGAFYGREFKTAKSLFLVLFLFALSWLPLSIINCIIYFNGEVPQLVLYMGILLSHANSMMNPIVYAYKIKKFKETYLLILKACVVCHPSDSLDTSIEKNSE
Method: [formula] Adenosine Receptor Binding: Binding Affinities at hA3 Receptors
The resultant homogenate was kept for immediate use in the binding assay.
as §1, with “Total” for “Binding assays were performed in a total volume of 250 μL, containing [^3H]-DPCPX (3.0 nM), membranes and additional drugs. Total”, “pH 7.5,” for “pH:7.5,”, “10” for “300”, “IB-MECA.” for “N6-cyclohexyladenosine (CHA).”
as §2, §3

[5] = Table 1, [3H]DPCPX displacement, CHO-K1 membranes
[6] = Table 1, [3H]CGS-21680 displacement, HEK-293 membranes
[7] = Table 1, [3H]-ZM241385 displacement, HEK-293 membranes
[8] = Table 1, [125I]-AB MECA displacement, CHO-K1 membranes
[9] = Table 2, comparative compounds of WO 02/055083

SMILES | In Vivo activity HaloLMA MED [1] [mg/kg] | pKi [2, 5] | Binding Selectivity A1/A2a ([2]; Table 1) | pKi [3, 6] | pKi (hA2B receptors; [7]) | Binding Selectivity A2b/A2a (hA2B receptors; Table 1) | Binding Selectivity A3/A2a ([4]; Table 1) | pKi [4, 8] | pKi [2, 9] | Binding Selectivity A1/A2a ([2]; Table 2) | pKi [3, 9] | pKi (hA2B receptors; [9]) | Binding Selectivity A2b/A2a (hA2B receptors; Table 2) | pKi [4, 9] | Binding Selectivity A3/A2a ([4]; Table 2)
Cc1ccc(-c2nc(N)nc3c2nnn3Cc2cccc(CO[C@H]3CCOC3)n2)o1 [Example 1, S-7-(5-methylfuran-2-yl)-3-(6-[tetrahydrofuran-3-yl]oxymethylpyrid-2-ylmethyl)-3H-[1,2,3]triazolo[4,5-d]pyrimidin-5-amine] | 0.3 |  |  |  |  |  |  |  |  |  |  |  |  |  | 
Nc1nc(-c2ccccc2)c2nnn(Cc3cccc(CO[C@H]4CCOC4)n3)c2n1 [Example 7, S-7-phenyl-3-(6-[tetrahydrofuran-3-yl]oxymethylpyrid-2-ylmethyl)-3H-[1,2,3]triazolo[4,5-d]pyrimidin-5-amine] |  | 6.14 | 54 | 7.87 | 5.90 | 93 | 634 |  |  |  |  |  |  |  | 
Nc1nc(-c2ccccc2)c2nnn(Cc3cccc(C4(O)CCC4)n3)c2n1 [Example 11, 7-phenyl-3-(6-[1-hydroxycyclobutyl]pyrid-2-ylmethyl)-3H-[1,2,3]triazolo[4,5-d]pyrimidin-5-amine] |  | 6.49 | 62 | 8.28 | 5.49 | 634 | 836 | 5.37 |  |  |  |  |  |  | 
COc1cccc(-c2nc(N)nc3c2nnn3Cc2cccc(C3(O)CCC3)n2)c1 [Example 17, 7-(3-methoxyphenyl)-3-(6-[1-hydroxycyclobutyl]pyrid-2-ylmethyl)-3H-[1,2,3]triazolo[4,5-d]pyrimidin-5-amine] |  | 6.41 | 39 | 8.00 | 5.33 | 472 | 196 | 5.71 |  |  |  |  |  |  | 
N#Cc1cccc(-c2nc(N)nc3c2nnn3Cc2cccc(C3(O)CCCC3)n2)c1 [Example 21, 7-(3-cyanophenyl)-3-(6-[1-hydroxy-1-cyclopentyl]pyrid-2-ylmethyl)-3H-[1,2,3]triazolo[4,5-d]pyrimidin-5-amine] |  | 5.62 | 100 | 7.62 | 5.69 | 86 |  |  |  |  |  |  |  |  | 
N#Cc1cccc(-c2nc(N)nc3c2nnn3Cc2cccc(C3(O)CCC3)n2)c1 [Example 23, 7-(3-cyanophenyl)-3-(6-[1-hydroxycyclobutyl]pyrid-2-ylmethyl)-3H-[1,2,3]triazolo[4,5-d]pyrimidin-5-amine] |  | 5.88 | 90 | 7.83 | 5.17 | 462 |  |  |  |  |  |  |  |  | 
Nc1cccc(Cn2nnc3c(-c4ccccc4)nc(N)nc32)c1 [WO 02/055083 Example 151, 3-(3-aminobenzyl)-7-phenyl-3H-[1,2,3]triazolo[4,5-d]pyrimidine-5-amine, reference compound] |  |  |  |  |  |  |  |  | 6.99 | 19 | 8.28 | 6.56 | 52 | 6.08 | 156
COCc1cccc(Cn2nnc3c(-c4ccc(C)o4)nc(N)nc32)n1 [WO 02/055083 Example 183, 3-(6-methoxymethyl-2-pyridylmethyl)-7-(5-methyl-2-furyl)-3H-[1,2,3]triazolo[4,5-d]pyrimidine-5-amine, reference compound] |  |  |  |  |  |  |  |  | 7.08 | 67 | 8.89 | 6.64 | 183 | 6.18 | 519
Cl.Nc1nc(-c2ccco2)c2nnn(Cc3cccc(CO)n3)c2n1 [WO 02/055083 Example 213, 7-(2-furyl)-3-(6-hydroxymethyl-2-pyridylmethyl)-3H-[1,2,3]triazolo[4,5-d]pyrimidine-5-amine hydrochloride, reference compound] |  |  |  |  |  |  |  |  | 6.23 | 216 | 8.57 | 6.57 | 100 | 5.77 | 625
CC(C)COCc1cccc(Cn2nnc3c(-c4ccco4)nc(N)nc32)n1 [WO 02/055083 Example 217, 7-(2-furyl)-3-(6-isobutyloxymethyl-2-pyridylmethyl)-3H-[1,2,3]triazolo[4,5-d]pyrimidine-5-amine, reference compound] |  |  |  |  |  |  |  |  | 6.82 | 53 | 8.54 | 6.42 | 131 | 6.32 | 163
CC(C)OCc1cccc(Cn2nnc3c(-c4ccco4)nc(N)nc32)n1 [WO 02/055083 Example 247, 7-(2-furyl)-3-(6-isopropoxymethyl-2-pyridylmethyl)-3H-[1,2,3]triazolo[4,5-d]pyrimidine-5-amine, reference compound] |  |  |  |  |  |  |  |  | 6.56 | 92 | 8.52 | 6.34 | 151 | 5.84 | 487
